Measurements published in ChEMBL document CHEMBL4680323, “'Proximity frequencies' a new parameter to evaluate the profile of GABAR modulators” (Bioorg Med Chem Lett, 2021).
Activity calls are given as the source filed them. No cut-off for these calls is given here.

Key:
Format in all cases: cell-based
[1] = tested on: Oocyte; experiment: Inverse agonist activity at GABAA alpha1/beta2/gamma2L (unknown origin) expressed in Xenopus laevis oocyte assessed as reduction in chloride current at 100 uM relative to control; set-up: scale not given: the % may be the effect or the level left; conditions: Homo sapiens, filed as inverse agonist
[2] = tested on: Oocyte; experiment: Inverse agonist activity at GABAA alpha1/beta2/gamma2L (unknown origin) expressed in Xenopus laevis oocyte assessed as reduction in chloride current at 30 uM relative to control; set-up: scale not given: the % may be the effect or the level left; conditions: Homo sapiens
[3] = tested on: Oocyte; experiment: Modulatory activity at GABAA alpha1/beta2/gamma2L (unknown origin) expressed in Xenopus laevis oocyte assessed as chloride current at 1 to 100 uM; conditions: Homo sapiens, dose 1-100 µM
[4] = tested on: Oocyte; experiment: Antagonist activity at GABAA alpha1/beta2/gamma2L (unknown origin) expressed in Xenopus laevis oocyte assessed as reduction in lorazepam-induced chloride current at 100 uM relative to control; set-up: scale not given: the % may be the effect or the level left; conditions: Homo sapiens, filed as antagonist
[5] = tested on: Oocyte; experiment: Agonist activity at GABAA alpha1/beta2/gamma2L (unknown origin) expressed in Xenopus laevis oocyte assessed as increase in chloride current at 30 uM relative to control; conditions: Homo sapiens, filed as agonist

Compound	Activity [3]	Activity [4]	other results
COc1ccc2cnc3c(C(=O)NC4CCCCC4)cnn3c2c1			Activity [1]: 49%; Activity [2]: 19%
COc1ccc2c(c1)-n1ncc(C(=O)NC3CCCCC3)c1NC2	inactive	Active	
COc1ccc2cnc3c(C(=O)NCc4ccccc4)cnn3c2c1	inactive	Active	
COc1ccc2c(c1)-n1ncc(C(N)=O)c1NC2	inactive	Active	
COc1ccc2c(c1)-n1ncc(C(=O)NC(C)C)c1NC2	inactive	90%	
COc1ccc2cnc3c(C(N)=O)cnn3c2c1	inactive	Active	
COc1ccc2cnc3c(C(=O)NCC4CCCCC4)cnn3c2c1	inactive	Active	
COc1ccc2cnc3c(C(=O)NCc4ccco4)cnn3c2c1			Activity [5]: Active
COc1ccc2cnc3c(C(=O)NCc4cccs4)cnn3c2c1			Activity [5]: 34%
COc1ccc2c(c1)-n1ncc(C(=O)NCc3ccco3)c1NC2			Activity [5]: Active
COc1ccc2cnc3c(C(=O)Nc4ccccc4)cnn3c2c1			Activity [5]: 34%
COc1ccc2cnc3c(C(=O)NC(C)C)cnn3c2c1	inactive	Active	
COc1ccc2c(c1)-n1ncc(C(=O)NCC3CCCCC3)c1NC2	inactive	Active	
COc1ccc2c(c1)-n1ncc(C(=O)Nc3ccccc3)c1NC2			Activity [5]: 34%
COc1ccc2cnc3c(C(=O)NCc4ccccc4OC)cnn3c2c1	inactive	Active	
COc1ccc2c(c1)-n1ncc(C(=O)NCc3ccccc3OC)c1NC2	inactive	Active	
COc1ccc2c(c1)-n1ncc(C(=O)NCc3ccccc3)c1NC2	inactive	Active	
